Patent US20020127605A1 (priority 2000, published 2002)
pIC50: −log10 of the molar value. Like-named read-outs stand apart in the source and are kept apart here.

Columns and labels:
human recombinant CyPA [1] = molecular target: T1, human recombinant CyPA (Homo sapiens, UniProt P62937); test: Rotamase inhibition, chymotrypsin-coupled cuvette assay (asterisked values); assay type: biochemical
Source text: (§1) A number of substrates for rotamase are known in the art or can be derived from those known. Typically, the substrate contacts a sample containing a protein with rotamase activity and the conversion of the substrate is detected after a period of time. The method for detecting conversion of the substrate will vary with the particular substrate chosen. One method has been termed the Ki test (See Harding, et al., Nature, 341:758-760 (1989). The cis-trans isomerization of an alanine-proline bond in a model substrate, N-succinyl-Ala-Ala-Pro-Phe-p-nitroanilide, is monitored spectrophotometrically in a chymotrypsin-coupled assay. The action of chymotrypsin releases p-nitroaniline from only the trans form of the substrate. The amount of p-nitroaniline can be monitored in a spectrophotometer, for example. Other methods of detecting the presence of p-nitroaniline can also be used. The inhibition of this reaction caused by different concentrations of inhibitor is determined and the data are analyzed as a change in first-order rate constant as a function of inhibitor concentration, which yields the Ki value.
(§2) The following were added to a plastic cuvette: […] of ice cold assay buffer (25 mM HEPES, pH 7.8, 100 mM NaCl), 10 μL of CyP A (2.5 μM in 10 mM Tris-Cl pH 7.5, 100 mM NaCl, 1 mM dithiothreitol), 25 μL of chymotrypsin (50 mg/ml in 1 mM HCl), and 10 μL of test compound, at various concentrations, in dimethyl sulfoxide. The reaction was initiated by the addition of 5 μL of substrate (succinyl-Ala-Phe-Pro-Phe-para-nitroanilide, 5 mg/mL in 470 mM LiCl in trifluoroethanol). The absorbance at 390 nm versus time was monitored for 90 seconds using a spectrophotometer and the rate constants were determined from the absorbance versus time data files.
(§3) The IC50 values that were obtained for representative compounds in the following Table I refer to the concentration that inhibits 50% of the rotamase activity in a sample. […] The Cyclophilin utilized was a recombinant rat CyPA-GST fusion protein: CypA was amplified from rat brain cDNA using standard PCR methods, primed with the following sequences: 5′ CCCCCCGGGAGTCAACCCCACCGTGTTCTTCGA 3′ and 5′ GGAGATCTAGAGTTGTCCACAGTCGGAGATGGT 3′. The resulting fragment (573 base pairs) was cloned into pCRII and amplified. The CyP sequence was cut out with Smal and EcoRl and cloned into the Smal/EcoRl sites in pGEX2TK (Pharmacia). This plasmid was transformed into BL21 E. coli cells for expression of the GST-CyPA fusion protein.

[2] = molecular target: T2, recombinant rat CyPA-GST fusion protein (Rattus norvegicus, UniProt P10111); test: Rotamase (prolyl peptidyl cis-trans isomerase) inhibition, chymotrypsin-coupled cuvette assay; assay type: biochemical
T2 construct: made in house; host or cells: E. coli BL21
T2 sequence (P10111 2-164): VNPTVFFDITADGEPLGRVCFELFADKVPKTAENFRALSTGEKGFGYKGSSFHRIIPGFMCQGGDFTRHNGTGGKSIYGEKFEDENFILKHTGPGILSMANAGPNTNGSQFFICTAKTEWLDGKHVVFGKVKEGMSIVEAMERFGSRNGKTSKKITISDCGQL
Source text: as §1, §2, §3

[3] = tested on: striatal tyrosine hydroxylase-immunoreactive fibres; test: MPTP-lesioned mouse model of Parkinson's disease, striatal TH fiber density; assay type: in vivo; details: 10 mg/kg s.c. in Intralipid once daily days 1-5, one hour prior to MPTP; analysis day seven
Source text: MPTP (N-methyl-4-phenyl-1,2,3,6-tetrahydropyridine) is a systemically available neurotoxin specific to nigrostriatal dopaminergic neurons, i.e. to the cells that degenerate in human Parkinson's disease. Administration of MPTP to mice leads to a selective partial destruction of the mesotelencephalic dopaminergic projection, and to a loss of dopamine and dopaminergic fibres in the corpus striatum, which is the main forebrain target of midbrain dopaminergic neurons.
Young adult male CD1 albino mice (Harlan—Sprague Dawley; 22-25 g) were dosed i.p. with the dopamine cell-specific neurotoxin N-methyl-4-phenyl-1,2,3,6-tetrahydropyridine (MPTP hydrochloride, calculated as 34 mg/kg free base), dissolved in saline at a concentration of 3.4 mg/ml free base once daily on days one to five. […]
Blinded analysis of TH fiber density in the central striatum was performed at 630× magnification. […] The percentage of sample field covered by TH positive processes and terminals was calculated using an image analysis program (“Simple,” Compix Inc., Pittsburgh, Pa.). The mean striatal innervation density was calculated for each group. The magnitude of striatal deafferentation due to the MPTP lesion was assessed by dividing the observed striatal innervation values obtained in MPTP/vehicle treated cases by the mean striatal innervation density in the Vehicle/Vehicle group and expressed as % loss. […]

human recombinant CyPA [4] = molecular target: T1, human recombinant CyPA; test: Semiautomated microtiter plate assay of rotamase activity inhibition; assay type: biochemical; details: 30 minute preincubation at 4° C., read-out: IC50 (rotamase inhibition, modified plate reader assay)
Description: Semiautomated Assay of Rotamase Activity Inhibition: Rotamase inhibition was determined using a semiautomated microtiter plate assay modification of the above described assay [see Küillertz et al., Clin. Chem. 44, 502-508 (1998)]. All dilutions of CyPA, peptide substrate, and chymotrypsin were made in 35 mM ice-cold HEPES buffer. Fifty μL of CyPA solution were added to 50 μL of peptide substrate solution (Phe-Pro-Phe p-nitroanilide, 0.16 mg/ml) in a glass microtiter well plate (the concentration of human recombinant CyP being adjusted so that the reaction rate is increased by a factor of 3 as compared to an uncatalyzed control reaction wherein the peptide substrate is degraded by chymotrypsin alone, in the absence of CyPA and test compound). Using a Beckman Multimek™ 96 automated 96-channel pipettor, 5 μL of test compound solution, or a DMSO blank, were added to each well for a 30 minute preincubation at 4° C. One hundred μL of chymotrypsin solution (1 mg/mL) were added to each well and the absorbance at 390 nm versus time was monitored for 9-10 minutes using a BioRad Ultramark plate reader maintained at 4° C. and the rate constants were determined from the absorbance versus time data files. The cyclophilin utilized was a human recombinant CyPA [Yoo et al., J. Mol. Biol., 269 (1997) 780-95].
IC50 values which were obtained for representative compounds using this modified plate reader assay of rotamase inhibition are given in the following Table II: […]

[5] = human recombinant CyPA, values with asterisk, read-out: IC50 (rotamase activity)

T1 sequence (P62937 whole entry): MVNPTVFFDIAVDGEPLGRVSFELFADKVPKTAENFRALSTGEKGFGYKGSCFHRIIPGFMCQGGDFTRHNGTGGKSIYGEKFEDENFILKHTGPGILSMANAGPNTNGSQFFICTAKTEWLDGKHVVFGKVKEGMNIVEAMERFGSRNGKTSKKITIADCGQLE

| pIC50 (human recombinant CyPA [4]) | pIC50 (human recombinant CyPA [1]; [5]) | Molecule | also measured |
| --- | --- | --- | --- |
| – | – | O=C(Nc1cccc(N(S(=O)(=O)c2ccc3ccccc3c2)S(=O)(=O)c2ccc3ccccc3c2)c1)c1cc(Cl)cc(Cl)c1 [Compound 8] | pIC50 (human recombinant CyPA [1]): 6.09; pIC50 [2]: 6.15 |
| – | – | O=C(Nc1cccc(N(S(=O)(=O)c2cc(Cl)cc(Cl)c2)S(=O)(=O)c2cc(Cl)cc(Cl)c2)c1)c1cc(Cl)cc(Cl)c1 [Compound 8a] | protection of striatal tyrosine hydroxylase-immunoreactive fibres [3]: 37,2%; pIC50 [2]: 6.44 |
| 5.69 | – | S=C(Nc1ccc(I)cc1)NC1CCCCC1NC(=S)Nc1ccc(I)cc1 (stereo not drawn) [Compound 13, [(4-iodophenyl)amino]{[2-({[(4-iodophenyl)amino]thioxomethyl}amino)cyclohexyl]amino}methane-1-thione] | pIC50 ([2]; recombinant rat CyPA-GST fusion protein, values without asterisk, read-out: IC50 (rotamase activity)): 6.17 |
| – | 6.29 | S=C(Nc1cc(Cl)cc(Cl)c1)Nc1cccc(C=NN(c2ccccc2)c2ccccc2)c1 [Compound 21, ({3-[2-aza-2-(diphenylamino)vinyl]phenyl}amino)[(3,5-dichlorophenyl)amino]methane-1-thione] | – |
| – | 6.13 | O=S(=O)(Oc1cccc(NC(=S)Nc2cc(Cl)cc(Cl)c2)c1)c1c(F)c(F)c(F)c(F)c1F [Compound 22, 3-({[(3,5-dichlorophenyl)amino]thioxomethyl}amino)phenyl 2,3,4,5,6-pentafluorobenzenesulfonate] | – |
| 5.42 | 6.33 | O=C(NNC(=O)c1cccc(NC(=O)c2cccc(OCc3ccccc3)c2)c1)c1cc(Cl)cc(Cl)c1 [Compound 30, 1-{3-[(3-Benzyloxy)phenylcarboxamido]benzoyl}-2-(3,5-dichlorobenzoyl)hydrazine] | – |
| 5.57 | 6.01 | O=C(NNS(=O)(=O)c1ccc(Cl)c(Cl)c1)c1cccc(NC(=O)c2cccc(OCc3ccccc3)c2)c1 [Compound 31, 1-{3-[(3-Benzyloxy)phenylcarboxamido]benzoyl}-2-(3,4-dichlorobenzenesulfonyl)hydrazine] | – |
| 6.15 | 7.07 | O=C(CCCCc1ccccc1)Nc1cccc(C(=O)NNC(=S)Nc2ccc(Cl)c(Cl)c2)c1 [Compound 33, 1-{3-[(5-Phenyl)valeroylamino]benzoyl}-4-(3,4-dichlorophenyl)thiosemicarbazide] | – |
| 5.55 | – | O=C(CCCCc1ccccc1)Nc1cccc(-c2nnc(Nc3ccc(Cl)c(Cl)c3)s2)c1 [Compound 40A, 5-Phenyl-pentanoic acid {3-[5-(3,4-dichloro-phenylamino)-[1,3,4]thiadiazol-2-yl]-phenyl}-amide] | – |
| 6.05 | – | O=C(CCCCc1ccccc1)Nc1cccc(-c2nnc(Nc3ccc(Cl)c(Cl)c3)o2)c1 [Compound 40B, 5-Phenyl-pentanoic acid {3-[5-(3,4-dichloro-phenylamino)-[1,3,4]oxadiazol-2-yl]-phenyl}-amide] | – |
| 5.28 | – | O=C(CCCCc1ccccc1)Nc1cccc(C(=O)NNC(=S)NC23CC4CC(CC(C4)C2)C3)c1 [Compound 41, 1-[(6-Phenyl-1-aza-2-oxo)hexyl]-3-{[(adamant-1-yl)-1-oxo-2,3,5-triaza-4-thio]pentyl}-benzene] | – |
| 5.22 | – | O=C(CCCCc1ccccc1)Nc1cccc(NC(=O)CC(=O)Nc2ccc(Cl)c(Cl)c2)c1 [Compound 42, 1-[(6-Phenyl-1-aza-2-oxo)hexyl]-3-{[5-(3,4-dichlorophenyl)-1,5-diaza-2,4-oxo]pentyl}-benzene] | – |
| 5.80 | – | O=C(CCCCc1ccccc1)Nc1ccc(C(=O)NNC(=S)Nc2ccc(Cl)c(Cl)c2)cc1 [Compound 43, 1-{4-[(5-Phenyl)pentanoylamino]benzoyl}-4-(3,4-dichlorophenyl)thiosemicarbazide] | – |
| 6.89 | – | O=C(CCCCCc1cccc(C(F)(F)F)c1)Nc1cccc(S(=O)(=O)NC(=S)Nc2ccc(Cl)c(Cl)c2)c1 [Compound 45] | – |
| 5.04 | – | L-N-[3-(6-Phenylhexanoylamino)benzoyl]proline 3,4-dichlorobenzamide [Compound 36] | – |
